Columns and labels:
Assay in all cases: biochemical
Set-up in all cases: species or system HEK293/K-562/placenta mixed human extract; Kinobeads chemoproteomic competition binding, quantified by TMT LC-MS/MS, dose response up to 20 uM
CSNK1E = CSNK1E (Homo sapiens, UniProt P49674)
MARK2 = MARK2 (Homo sapiens, UniProt Q7KZI7)
TESK2 = TESK2 (Homo sapiens, UniProt Q96S53)
MAP2K2 = MAP2K2 (Homo sapiens, UniProt P36507)
DAPK1 = DAPK1 (Homo sapiens, UniProt P53355)
HCK = HCK (Homo sapiens, UniProt P08631)
CAMK2G = CAMK2G (Homo sapiens, UniProt Q13555)
ADCK1 = ADCK1 (Homo sapiens, UniProt Q86TW2)
CAMK2A = CAMK2A (Homo sapiens, UniProt Q9UQM7)
MAP3K6 = MAP3K6 (Homo sapiens, UniProt O95382)
RIPK2 = RIPK2 (Homo sapiens, UniProt O43353)
CAMK2B = CAMK2B (Homo sapiens, UniProt Q13554)
DDR2 = DDR2 (Homo sapiens, UniProt Q16832)
MARK1 = MARK1 (Homo sapiens, UniProt Q9P0L2)
DSTYK = DSTYK (Homo sapiens, UniProt Q6XUX3)
GAK = GAK (Homo sapiens, UniProt O14976)
EPHA3 = EPHA3 (Homo sapiens, UniProt P29320)
EPHB2 = EPHB2 (Homo sapiens, UniProt P29323)
NUAK1 = NUAK1 (Homo sapiens, UniProt O60285)
CHEK2 = CHEK2 (Homo sapiens, UniProt O96017)
HIPK2 = HIPK2 (Homo sapiens, UniProt Q9H2X6)

Measured: IC50

Sequence of MAP2K2 (P36507 whole entry): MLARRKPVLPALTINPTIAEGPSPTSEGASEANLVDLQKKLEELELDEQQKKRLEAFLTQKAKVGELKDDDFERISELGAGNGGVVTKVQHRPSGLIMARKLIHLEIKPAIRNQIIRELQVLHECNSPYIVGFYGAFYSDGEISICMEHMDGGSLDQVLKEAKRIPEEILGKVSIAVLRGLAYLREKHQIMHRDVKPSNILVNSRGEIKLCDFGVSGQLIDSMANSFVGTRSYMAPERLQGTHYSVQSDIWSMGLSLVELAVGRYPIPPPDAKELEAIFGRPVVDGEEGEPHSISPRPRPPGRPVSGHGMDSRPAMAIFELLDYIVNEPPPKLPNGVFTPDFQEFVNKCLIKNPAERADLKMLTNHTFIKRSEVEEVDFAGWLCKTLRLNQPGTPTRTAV
Sequence of EPHA3 (P29320 whole entry): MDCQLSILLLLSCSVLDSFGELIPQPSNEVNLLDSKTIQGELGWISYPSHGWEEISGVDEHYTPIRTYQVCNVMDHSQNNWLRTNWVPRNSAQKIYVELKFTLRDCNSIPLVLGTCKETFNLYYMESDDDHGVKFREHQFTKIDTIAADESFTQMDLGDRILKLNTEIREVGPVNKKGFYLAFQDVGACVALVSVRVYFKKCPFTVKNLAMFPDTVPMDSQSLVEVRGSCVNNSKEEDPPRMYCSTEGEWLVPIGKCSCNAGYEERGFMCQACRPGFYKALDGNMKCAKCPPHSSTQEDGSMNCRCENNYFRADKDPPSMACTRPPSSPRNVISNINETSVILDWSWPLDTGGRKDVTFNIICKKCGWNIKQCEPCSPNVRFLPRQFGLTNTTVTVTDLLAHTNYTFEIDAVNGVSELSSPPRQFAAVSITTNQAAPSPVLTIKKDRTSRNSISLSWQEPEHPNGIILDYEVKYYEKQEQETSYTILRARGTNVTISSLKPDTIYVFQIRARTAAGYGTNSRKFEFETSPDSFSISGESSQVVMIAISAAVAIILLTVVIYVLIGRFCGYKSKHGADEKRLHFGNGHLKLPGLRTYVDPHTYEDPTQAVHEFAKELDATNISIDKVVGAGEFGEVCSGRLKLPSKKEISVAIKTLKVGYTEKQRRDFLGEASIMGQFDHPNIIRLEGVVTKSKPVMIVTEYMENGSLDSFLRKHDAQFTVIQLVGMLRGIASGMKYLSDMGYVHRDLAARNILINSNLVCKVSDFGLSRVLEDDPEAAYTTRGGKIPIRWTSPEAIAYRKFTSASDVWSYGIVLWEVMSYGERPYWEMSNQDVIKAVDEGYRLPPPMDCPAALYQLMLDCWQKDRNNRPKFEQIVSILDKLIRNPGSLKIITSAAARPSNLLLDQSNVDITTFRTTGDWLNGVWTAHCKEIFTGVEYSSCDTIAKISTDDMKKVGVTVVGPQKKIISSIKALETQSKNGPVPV
Sequence of MARK2 (Q7KZI7 whole entry): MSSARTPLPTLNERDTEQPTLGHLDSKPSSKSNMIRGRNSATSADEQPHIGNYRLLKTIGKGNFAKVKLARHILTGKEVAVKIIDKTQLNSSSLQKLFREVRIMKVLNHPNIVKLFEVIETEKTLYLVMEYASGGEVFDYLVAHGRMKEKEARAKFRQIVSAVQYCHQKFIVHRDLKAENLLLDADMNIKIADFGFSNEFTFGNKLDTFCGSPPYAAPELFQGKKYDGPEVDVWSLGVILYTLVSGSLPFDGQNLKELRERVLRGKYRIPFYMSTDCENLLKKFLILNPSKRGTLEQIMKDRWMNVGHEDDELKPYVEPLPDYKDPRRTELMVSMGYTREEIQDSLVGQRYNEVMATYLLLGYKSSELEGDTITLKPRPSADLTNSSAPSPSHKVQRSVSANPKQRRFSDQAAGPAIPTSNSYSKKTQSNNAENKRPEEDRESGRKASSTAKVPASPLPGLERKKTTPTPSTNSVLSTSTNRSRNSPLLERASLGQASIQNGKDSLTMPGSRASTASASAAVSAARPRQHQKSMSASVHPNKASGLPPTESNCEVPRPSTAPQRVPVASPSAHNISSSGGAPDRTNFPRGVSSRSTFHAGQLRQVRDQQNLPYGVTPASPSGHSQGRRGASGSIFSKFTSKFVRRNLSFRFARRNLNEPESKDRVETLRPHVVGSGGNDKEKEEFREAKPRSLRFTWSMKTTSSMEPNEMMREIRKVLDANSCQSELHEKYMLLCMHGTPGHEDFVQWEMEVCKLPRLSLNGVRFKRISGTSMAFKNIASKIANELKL
Sequence of GAK (O14976 whole entry): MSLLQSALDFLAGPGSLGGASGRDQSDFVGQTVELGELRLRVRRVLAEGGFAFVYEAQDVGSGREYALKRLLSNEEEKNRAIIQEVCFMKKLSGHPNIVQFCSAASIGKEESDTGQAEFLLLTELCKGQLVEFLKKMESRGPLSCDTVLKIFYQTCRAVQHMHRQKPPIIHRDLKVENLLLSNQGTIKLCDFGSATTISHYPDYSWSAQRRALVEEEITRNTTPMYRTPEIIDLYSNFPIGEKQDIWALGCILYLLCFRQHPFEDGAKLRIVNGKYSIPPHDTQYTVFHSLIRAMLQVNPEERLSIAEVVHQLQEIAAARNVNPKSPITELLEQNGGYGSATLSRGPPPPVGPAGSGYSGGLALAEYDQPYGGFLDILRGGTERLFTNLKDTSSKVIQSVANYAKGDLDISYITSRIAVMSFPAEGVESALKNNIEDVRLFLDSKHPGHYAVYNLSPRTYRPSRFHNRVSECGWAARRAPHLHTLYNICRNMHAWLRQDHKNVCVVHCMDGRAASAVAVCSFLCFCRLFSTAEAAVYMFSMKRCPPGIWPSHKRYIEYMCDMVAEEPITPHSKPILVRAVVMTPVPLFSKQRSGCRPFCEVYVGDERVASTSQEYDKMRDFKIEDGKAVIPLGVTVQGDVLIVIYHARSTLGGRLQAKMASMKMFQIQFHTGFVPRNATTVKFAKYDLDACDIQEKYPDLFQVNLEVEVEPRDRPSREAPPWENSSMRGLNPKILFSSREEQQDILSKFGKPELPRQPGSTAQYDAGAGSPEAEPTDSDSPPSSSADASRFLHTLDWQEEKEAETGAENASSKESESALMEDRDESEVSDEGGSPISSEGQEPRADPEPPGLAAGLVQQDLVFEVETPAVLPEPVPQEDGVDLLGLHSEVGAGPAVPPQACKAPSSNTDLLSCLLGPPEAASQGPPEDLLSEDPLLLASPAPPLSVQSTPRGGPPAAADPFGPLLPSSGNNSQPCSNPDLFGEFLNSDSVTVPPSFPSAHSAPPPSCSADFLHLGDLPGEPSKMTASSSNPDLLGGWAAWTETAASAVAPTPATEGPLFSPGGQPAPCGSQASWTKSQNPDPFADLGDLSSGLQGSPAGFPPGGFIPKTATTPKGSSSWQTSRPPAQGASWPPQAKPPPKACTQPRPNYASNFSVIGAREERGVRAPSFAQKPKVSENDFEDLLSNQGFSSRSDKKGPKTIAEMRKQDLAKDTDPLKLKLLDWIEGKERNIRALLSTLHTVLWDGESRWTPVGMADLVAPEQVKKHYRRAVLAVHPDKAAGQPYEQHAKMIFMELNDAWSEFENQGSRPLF
Sequence of MARK1 (Q9P0L2 whole entry): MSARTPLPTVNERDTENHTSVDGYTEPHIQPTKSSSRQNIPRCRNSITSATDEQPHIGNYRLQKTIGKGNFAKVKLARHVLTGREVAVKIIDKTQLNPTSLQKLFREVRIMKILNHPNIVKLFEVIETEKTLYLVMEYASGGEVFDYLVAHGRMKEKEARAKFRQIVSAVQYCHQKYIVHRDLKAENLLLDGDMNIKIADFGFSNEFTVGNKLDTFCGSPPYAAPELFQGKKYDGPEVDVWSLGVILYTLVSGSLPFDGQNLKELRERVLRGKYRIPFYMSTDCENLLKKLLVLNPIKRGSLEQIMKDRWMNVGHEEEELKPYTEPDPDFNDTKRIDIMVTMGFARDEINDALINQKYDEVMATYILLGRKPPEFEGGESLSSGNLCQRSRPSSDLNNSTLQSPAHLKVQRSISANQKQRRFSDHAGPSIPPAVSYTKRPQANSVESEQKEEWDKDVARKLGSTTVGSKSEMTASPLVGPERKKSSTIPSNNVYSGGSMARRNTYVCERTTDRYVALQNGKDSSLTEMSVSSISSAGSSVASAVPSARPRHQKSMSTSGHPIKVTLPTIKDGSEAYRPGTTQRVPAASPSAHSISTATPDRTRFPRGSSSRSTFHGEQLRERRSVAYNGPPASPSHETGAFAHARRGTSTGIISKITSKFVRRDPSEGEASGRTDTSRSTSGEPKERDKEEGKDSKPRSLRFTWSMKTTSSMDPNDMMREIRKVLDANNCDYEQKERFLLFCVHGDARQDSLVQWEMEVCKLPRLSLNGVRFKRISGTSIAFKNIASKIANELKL
Sequence of TESK2 (Q96S53 whole entry): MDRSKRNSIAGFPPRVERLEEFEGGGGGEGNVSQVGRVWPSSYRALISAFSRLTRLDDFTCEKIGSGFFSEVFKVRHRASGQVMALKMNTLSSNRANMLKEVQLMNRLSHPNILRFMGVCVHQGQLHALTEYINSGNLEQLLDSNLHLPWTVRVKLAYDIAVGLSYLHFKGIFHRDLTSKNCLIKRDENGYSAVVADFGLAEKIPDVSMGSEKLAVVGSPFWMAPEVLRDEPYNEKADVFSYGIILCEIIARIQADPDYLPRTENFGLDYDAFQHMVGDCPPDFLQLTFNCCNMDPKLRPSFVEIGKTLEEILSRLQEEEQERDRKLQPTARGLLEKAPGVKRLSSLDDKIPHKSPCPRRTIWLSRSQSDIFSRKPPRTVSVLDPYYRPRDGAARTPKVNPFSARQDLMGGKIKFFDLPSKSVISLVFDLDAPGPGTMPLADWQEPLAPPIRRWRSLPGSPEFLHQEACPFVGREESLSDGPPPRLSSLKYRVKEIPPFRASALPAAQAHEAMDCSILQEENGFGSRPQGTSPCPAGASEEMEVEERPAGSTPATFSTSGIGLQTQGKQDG

COc1nc(N[C@H]2CC[C@H](NS(=O)(=O)CC(C)C)CC2)nc2[nH]nc(N3CCOC[C@H]3C)c12 [compound 39, N-(trans-4-((4-Methoxy-3-((R)-3-methylmorpholino)-1H-pyrazolo[3,4-d]pyrimidin-6-yl)amino)cyclohexyl)-2-methylpropane-1-sulfonamide]
≥ 20 µM: all assays above

Reference: PMC6407917, “Identification of GSK3186899/DDD853651 as a Preclinical Development Candidate for the Treatment of Visceral Leishmaniasis” (Journal of Medicinal Chemistry, 2018)
